Data from US9156840B2, “D2 antagonists, methods of synthesis and methods of use” (ALTOS THERAPEUTICS, LLC, priority 2010, dated 2015).
Counter-ions that a name gives are not always drawn.

target: T1, human D2 receptor (Homo sapiens, UniProt P14416); experiment: D2 receptor radioligand binding assay (membranes of HEK-293 cells expressing human D2 receptor); settings: not given
T1 construct: expressed in transfected cells; cDNA from Origene clones TC308892 and SC123573
Description: Affinity for the dopamine D2 receptor was tested in vitro, and the following describes the construction of cell lines expressing human D2 receptor, as well as the binding assays themselves.
Establishment of Stable Cell Lines Expressing Either the Cloned Human D2S Receptor or the Cloned Human D2L Receptor.
The human D2 receptor exists in two isoforms: the short form (D2S) and the long form (D2L). The two isoforms are generated from the D2 gene by alternative splicing and the D2L isoform differs from the D2S isoform by the addition of 29 amino acids in the third intracellular loop of its protein structure.
To establish HEK-293 cell lines stably expressing either the human D2S or the human D2L, the human dopamine D2S receptor (Genebank Accession Number NM_016574) and human dopamine D2L receptor (Genebank Accession Number BC021195) were amplified by PCR from Origene cDNA clones TC308892 and SC123573 (respectively) using the following primers: 5-[…]-3 (SEQ ID NO: 1) sense and 5-[…]-3 (SEQ ID NO: 2) antisense. The resulting PCR products were respectively cloned into pENTR-D-TOPO (Invitrogen), sequenced and then transferred into the pCDNA3.2-DEST (Invitrogen) using the LR-clonasc gateway reaction (Invitrogen) and sequenced again to verify the genes sequence.
HEK293 cells were maintained in Eagles Minimum Essential Medium (MEM) supplemented with 0.292 g/L L-glutamine and 10% (v/v) fetal calf serum at 37° C. in a 5% CO2 humidified atmosphere. Cells were grown to 60-80% confluency in 10 cm dishes before transfection. Transfection of the D2S and D2L containing pcDNA3.2-DEST into HEK-293 cells were performed using Lipofectamine 2000 (Invitrogen). Transfected cells were seeded and diluted 2 days after transfection and maintained in culture medium supplemented with 500 μg/mL G418. The HEK-293 cell line expressing the huD2S (R2D2S) and the huD2L (R2D2L) were maintained in culture medium supplemented with 500 μg/mL G418.
D2 Receptor Binding Assays
HEK293 cells were in Eagles Minimum Essential Medium (MEM) supplemented with 10% FBS, 0.292 g/liter L-glutamine, 10^5 units/liter penicillin, 100 mg/liter streptomycin and […] Geneticin at 37° C. in a 5% CO2 humidified atmosphere. Cells were grown to 80-90% confluence and harvested with cell stripper (Cellgro #25-056-CI). Cells were then washed with PBS (2×). Cells were either pelleted and frozen at −80° C. or membranes were prepared immediately.
Cells from pellet were resuspended in homogenization buffer (15 mM Tris*HCl, 2 mM MgCl2*6H2O, 0.3 mM EDTA, 1 mM EGTA pH 7.4 @ 4° C.). Cells were then homogenized using a Polytron (PT 1200) homogenizer at setting 6 for 10 seconds. Crude membranes were pelleted at 39, 412 g for 15 min, at 4° C. (2×) in a Sorval RC6 plus centrifuge. Membranes were finally resuspended in resuspension buffer (50 mM Tris*HCl, 120 mM NaCl, 10 mM MgCl2*6H2O, 1 mM EDTA pH 7.4 @ 4° C.) and sonicated (Fisher Sonic Dismembrator) at setting 5 for 10 seconds.
The radioligand binding assays were conducted in microtiter plates (Costar #3961) with a final volume of 1.0 mL.
The membranes were thawed at room temperature, briefly homogenized using a sonicator, diluted in assay buffer and kept on wet ice until being added to the assay plate. Membranes were diluted to a final target tissue concentration of 10 μg protein per well. The specific binding should be greater than 80% with less than 10% total radioligand bound to minimize ligand depletion errors.
First compound of the invention (50 μL) or assay buffer (50 mM Tris*HCl, 120 mM NaCl, 5 mM MgCl2*6H2O, 1 mM EDTA, 5 mM KCl pH 7.4 @37° C. plus 0.025% BSA), buffer (700 μL) and then membrane (200 μL) were added to the deep well assay plate, which was then shaken for 10 minutes. Finally, radioligand (50 μL) was added.
The assay plates were incubated at 37° C. for 120 minutes.
The assay plate were filtered over 0.3% PEI pretreated glass fiber filtermats (GF/C) using a Packard Filtermate cell harvester. […]

T1 sequence (P14416 whole entry): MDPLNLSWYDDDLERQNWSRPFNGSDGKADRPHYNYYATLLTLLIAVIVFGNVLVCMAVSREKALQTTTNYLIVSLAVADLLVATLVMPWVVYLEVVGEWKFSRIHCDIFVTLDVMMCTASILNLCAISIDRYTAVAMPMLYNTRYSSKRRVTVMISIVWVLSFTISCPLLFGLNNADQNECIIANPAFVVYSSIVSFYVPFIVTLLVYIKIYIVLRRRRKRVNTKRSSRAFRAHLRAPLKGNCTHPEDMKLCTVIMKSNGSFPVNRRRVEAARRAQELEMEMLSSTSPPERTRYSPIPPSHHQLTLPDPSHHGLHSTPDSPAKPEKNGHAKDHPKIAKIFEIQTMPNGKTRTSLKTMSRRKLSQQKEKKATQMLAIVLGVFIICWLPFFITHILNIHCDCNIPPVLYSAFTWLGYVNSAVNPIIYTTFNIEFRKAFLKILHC

| Compound | IC50 [nM] |
| --- | --- |
| O=C(O[C@H]1CN2CCC1CC2)c1cccc(CN2CN(c3ccccc3)C3(CCN(CCCn4c(=O)[nH]c5ccccc54)CC3)C2=O)c1 [Compound 26, (R)-Quinuclidin-3-yl 3-((4-oxo-8-(3-(2-oxo-2,3-dihydro-1H-benzo[d]imidazol-1-yl)propyl)-1-phenyl-1,3,8-triazaspiro[4.5]decan-3-yl)methyl)benzoate] | < 10 |

same assay, conditions: radioligand displacement, HEK293 membranes, 37° C. for 120 minutes; read-out: Affinity Score (IC50 values for D2 on a scale of 1 through 5)

| Compound | IC50 [nM] |
| --- | --- |
| O=C(O)c1cccc(CN2CN(c3ccccc3)C3(CCN(CCCn4c(=O)[nH]c5ccccc54)CC3)C2=O)c1 [Compound 11, 3-((4-Oxo-8-(3-(2-oxo-2,3-dihydro-1H-benzo[d]imidazol-1-yl)propyl)-1-phenyl-1,3,8-triazaspiro[4.5]decan-3-yl)methyl)benzoic acid] | < 10 |
| O=C(O)c1ccc(CN2CN(c3ccccc3)C3(CCN(CCCn4c(=O)[nH]c5ccccc54)CC3)C2=O)cc1 [Compound 17, 4-((4-Oxo-8-(3-(2-oxo-2,3-dihydro-1H-benzo[d]imidazol-1-yl)propyl)-1-phenyl-1,3,8-triazaspiro[4.5]decan-3-yl)methyl)benzoic acid] | < 10 |
| O=C(O)c1ccccc1CN1CN(c2ccccc2)C2(CCN(CCCn3c(=O)[nH]c4ccccc43)CC2)C1=O [Compound 19, 2-((4-Oxo-8-(3-(2-oxo-2,3-dihydro-1H-benzo[d]imidazol-1-yl)propyl)-1-phenyl-1,3,8-triazaspiro[4.5]decan-3-yl)methyl)benzoic acid] | < 10 |
| O=C(CCCCCN1CN(c2ccccc2)C2(CCN(CCCn3c(=O)[nH]c4ccccc43)CC2)C1=O)OCc1ccccc1 [Compound 21, Benzyl 6-(4-oxo-8-(3-(2-oxo-2,3-dihydro-1H-benzo[d]imidazol-1-yl)propyl)-1-phenyl-1,3,8-triazaspiro[4.5]decan-3-yl)hexanoate] | < 10 |
| O=C(O)CCCCCN1CN(c2ccccc2)C2(CCN(CCCn3c(=O)[nH]c4ccccc43)CC2)C1=O [Compound 22, 6-(4-Oxo-8-(3-(2-oxo-2,3-dihydro-1H-benzo[d]imidazol-1-yl)propyl)-1-phenyl-1,3,8-triazaspiro[4.5]decan-3-yl)hexanoic acid] | < 10 |
| O=C(OCCN1CCOCC1)c1cccc(CN2CN(c3ccccc3)C3(CCN(CCCn4c(=O)[nH]c5ccccc54)CC3)C2=O)c1 [Compound 25, 2-Morpholinoethyl 3-((4-oxo-8-(3-(2-oxo-2,3-dihydro-1H-benzo[d]imidazol-1-yl)propyl)-1-phenyl-1,3,8-triazaspiro[4.5]decan-3-yl)methyl)benzoate] | < 10 |
| CCN(CC)C(=O)COC(=O)c1cccc(CN2CN(c3ccccc3)C3(CCN(CCCn4c(=O)[nH]c5ccccc54)CC3)C2=O)c1 [Compound 30, 2-(Diethylamino)-2-oxoethyl 3-((4-oxo-8-(3-(2-oxo-2,3-dihydro-1H-benzo[d]imidazol-1-yl)propyl)-1-phenyl-1,3,8-triazaspiro[4.5]decan-3-yl)methyl)benzoate] | < 10 |
| COC(=O)[C@@H](c1ccccc1)N1CN(c2ccccc2)C2(CCN(CCCn3c(=O)[nH]c4ccccc43)CC2)C1=O [Compound 34, (R)-methyl 2-(4-oxo-8-(3-(2-oxo-2,3-dihydro-1H-benzo[d]imidazol-1-yl)propyl)-1-phenyl-1,3,8-triazaspiro[4.5]decan-3-yl)-2-phenylacetate] | < 10 |
| CN1CCN(C(=O)COC(=O)c2cccc(CN3CN(c4ccccc4)C4(CCN(CCCn5c(=O)[nH]c6ccccc65)CC4)C3=O)c2)CC1 [Compound 35, 2-(4-Methylpiperazin-1-yl)-2-oxoethyl 3-((4-oxo-8-(3-(2-oxo-2,3-dihydro-1H-benzo[d]imidazol-1-yl)propyl)-1-phenyl-1,3,8-triazaspiro[4.5]decan-3-yl)methyl)benzoate] | < 10 |
| O=C(O)[C@@H](c1ccccc1)N1CN(c2ccccc2)C2(CCN(CCCn3c(=O)[nH]c4ccccc43)CC2)C1=O [Compound 39, (R)-2-(4-oxo-8-(3-(2-oxo-2,3-dihydro-1H-benzo[d]imidazol-1-yl)propyl)-1-phenyl-1,3,8-triazaspiro[4.5]decan-3-yl)-2-phenylacetic acid] | < 10 |
| O=C(O)[C@H](c1ccccc1)N1CN(c2ccccc2)C2(CCN(CCCn3c(=O)[nH]c4ccccc43)CC2)C1=O [Compound 40, (S)-2-(4-oxo-8-(3-(2-oxo-2,3-dihydro-1H-benzo[d]imidazol-1-yl)propyl)-1-phenyl-1,3,8-triazaspiro[4.5]decan-3-yl)-2-phenylacetic acid] | < 10 |
| O=C(O)c1cccc(CN2CN(c3ccc(F)cc3)C3(CCN(CCCn4c(=O)[nH]c5ccccc54)CC3)C2=O)c1 [Compound 43, 3-((1-(4-Fluorophenyl)-4-oxo-8-(3-(2-oxo-2,3-dihydro-1H-benzo[d]imidazol-1-yl)propyl)-1,3,8-triazaspiro[4.5]decan-3-yl)methyl)benzoic acid] | < 10 |
| O=C(O)c1cccc(CN2CN(c3ccccc3)C3(CCN(CCCn4c(=O)sc5ccccc54)CC3)C2=O)c1 [Compound 52, 3-((4-Oxo-8-(3-(2-oxobenzo[d]thiazol-3(2H)-yl)propyl)-1-phenyl-1,3,8-triazaspiro[4.5]decan-3-yl)methyl)benzoic acid] | < 10 |
| COc1ccc(N2CN(Cc3cccc(C(=O)O)c3)C(=O)C23CCN(CCCn2c(=O)[nH]c4ccccc42)CC3)cc1 [Compound 56, 3-((1-(4-Methoxyphenyl)-4-oxo-8-(3-(2-oxo-2,3-dihydro-1H-benzo[d]imidazol-1-yl)propyl)-1,3,8-triazaspiro[4.5]decan-3-yl)methyl)benzoic acid] | < 10 |
| COC(=O)c1cccc(CN2CN(c3ccccc3)C3(CCN(CCCc4c[nH]c5ccccc45)CC3)C2=O)c1 [Compound 57, methyl 3-((8-(3-(1H-indol-3-yl)propyl)-4-oxo-1-phenyl-1,3,8-triazaspiro[4.5]decan-3-yl)methyl)benzoate] | < 10 |
| O=C(O)CCCC(c1ccccc1)N1CN(c2ccccc2)C2(CCN(CCCn3c(=O)[nH]c4ccccc43)CC2)C1=O (centres unmarked) [Compound 69, 5-(4-Oxo-8-(3-(2-oxo-2,3-dihydro-1H-benzo[d]imidazol-1-yl)propyl)-1-phenyl-1,3,8-triazaspiro[4.5]decan-3-yl)-5-phenylpentanoic acid] | < 10 |
| O=C(O)CC(c1ccccc1)N1CN(c2ccccc2)C2(CCN(CCCn3c(=O)[nH]c4ccccc43)CC2)C1=O (centres unmarked) [Compound 70, 3-(4-Oxo-8-(3-(2-oxo-2,3-dihydro-1H-benzo[d]imidazol-1-yl)propyl)-1-phenyl-1,3,8-triazaspiro[4.5]decan-3-yl)-3-phenylpropanoic acid] | < 10 |
| O=C(O)c1cccc(CN2CN(c3ccccc3)C3(CCN(CCCN4C(=O)COc5ccccc54)CC3)C2=O)c1 [Compound 71, 3-((4-Oxo-8-(3-(3-oxo-2H-benzo[b][1,4]oxazin-4(3H)-yl)propyl)-1-phenyl-1,3,8-triazaspiro[4.5]decan-3-yl)methyl)benzoic acid] | < 10 |
| O=C(O)c1cccc(CN2CN(C3CCCCC3)C3(CCN(CCCn4c(=O)[nH]c5ccccc54)CC3)C2=O)c1 [Compound 72, 3-((1-cyclohexyl-4-oxo-8-(3-(2-oxo-2,3-dihydro-1H-benzo[d]imidazol-1-yl)propyl)-1,3,8-triazaspiro[4.5]decan-3-yl)methyl)benzoic acid, formate] | < 10 |
